Experimental data taken from article PMC6266789 (Viruses, 2018).

System: NA of pH1N1 influenza virus recovered from lungs of IS mice
Type: biochemical, influenza A(H1N1)pdm09

Structure (SMILES): CCOC(=O)C1=C[C@@H](OC(CC)CC)[C@H](NC(C)=O)[C@@H](N)C1 [Oseltamivir, oseltamivir]
- oseltamivir resistance phenotype associated with H275Y by NAI assay: not detected
